Experimental data: ChEMBL document CHEMBL5154787 (J Med Chem, 2022)

Key:
[1] = Metabolic stability in mouse liver microsomes assessed as parent compound remaining at 0.5 uM incubated for 10 mins in presence of NADPH by LC-MS/MS analysis; format: ADME, Microsome; settings: liver microsomes, read-out: Stability
[2] = molecular target: AP2-associated protein kinase 1 (Mus musculus, UniProt Q3UHJ0); assay: Displacement of 3H-LP-927443 from AAK1 in C57BL6 mouse brain homogenate assessed as inhibition constant incubated for 1 hr by liquid scintillation counter analysis; format: tissue-based
Sequence of AP2-associated protein kinase 1 (Mus musculus, UniProt Q3UHJ0) (Q3UHJ0 whole entry): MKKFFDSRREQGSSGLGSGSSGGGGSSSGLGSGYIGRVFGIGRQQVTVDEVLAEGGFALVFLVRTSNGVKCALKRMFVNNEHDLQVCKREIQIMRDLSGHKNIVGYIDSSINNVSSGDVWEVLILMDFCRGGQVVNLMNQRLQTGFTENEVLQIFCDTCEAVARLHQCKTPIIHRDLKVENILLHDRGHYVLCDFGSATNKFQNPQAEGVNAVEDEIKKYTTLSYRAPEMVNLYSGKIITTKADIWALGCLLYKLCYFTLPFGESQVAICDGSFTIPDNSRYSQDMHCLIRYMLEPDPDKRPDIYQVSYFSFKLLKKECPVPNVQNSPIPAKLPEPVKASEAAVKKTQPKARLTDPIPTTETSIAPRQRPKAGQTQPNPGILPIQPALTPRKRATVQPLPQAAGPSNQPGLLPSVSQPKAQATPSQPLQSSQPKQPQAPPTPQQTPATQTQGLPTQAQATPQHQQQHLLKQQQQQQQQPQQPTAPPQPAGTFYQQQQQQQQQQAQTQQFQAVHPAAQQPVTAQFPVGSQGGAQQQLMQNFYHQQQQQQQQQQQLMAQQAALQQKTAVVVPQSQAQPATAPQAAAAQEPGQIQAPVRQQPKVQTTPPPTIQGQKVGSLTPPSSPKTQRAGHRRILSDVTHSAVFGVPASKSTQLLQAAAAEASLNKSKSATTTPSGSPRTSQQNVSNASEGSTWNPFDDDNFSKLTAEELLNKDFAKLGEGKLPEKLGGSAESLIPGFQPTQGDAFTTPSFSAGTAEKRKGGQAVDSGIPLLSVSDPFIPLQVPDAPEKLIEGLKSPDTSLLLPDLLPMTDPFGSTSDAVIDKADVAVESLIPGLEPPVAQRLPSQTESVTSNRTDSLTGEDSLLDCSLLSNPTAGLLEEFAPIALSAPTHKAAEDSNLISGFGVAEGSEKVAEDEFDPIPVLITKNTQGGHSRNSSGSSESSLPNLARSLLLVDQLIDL

[3] = Metabolic stability in human liver microsomes assessed as parent compound remaining at 0.5 uM incubated for 10 mins in presence of NADPH by LC-MS/MS analysis; format: ADME, Microsome; settings: read-out: Stability
[4] = molecular target: Cytochrome P450 3A4 (Homo sapiens, UniProt P08684); assay: Inhibition of CYP3A4 (unknown origin) incubated for 10 mins in presence of NADPH by LC-MS/MS analysis; format: ADME
Sequence of Cytochrome P450 3A4 (P08684 whole entry): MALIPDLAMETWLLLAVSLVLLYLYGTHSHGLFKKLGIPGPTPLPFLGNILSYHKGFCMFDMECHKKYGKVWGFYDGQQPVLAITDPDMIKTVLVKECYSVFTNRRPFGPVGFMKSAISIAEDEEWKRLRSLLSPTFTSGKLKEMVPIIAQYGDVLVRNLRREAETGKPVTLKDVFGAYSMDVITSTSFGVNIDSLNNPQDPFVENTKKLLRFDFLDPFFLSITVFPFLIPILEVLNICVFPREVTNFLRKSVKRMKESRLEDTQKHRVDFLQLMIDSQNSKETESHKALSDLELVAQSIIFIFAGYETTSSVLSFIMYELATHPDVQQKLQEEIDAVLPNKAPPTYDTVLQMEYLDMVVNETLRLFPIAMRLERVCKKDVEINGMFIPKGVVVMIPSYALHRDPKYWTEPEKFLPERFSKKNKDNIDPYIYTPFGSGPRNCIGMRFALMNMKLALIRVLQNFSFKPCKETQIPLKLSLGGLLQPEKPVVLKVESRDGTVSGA

[5] = Metabolic stability in rat liver microsomes assessed as parent compound remaining at 0.5 uM incubated for 10 mins in presence of NADPH by LC-MS/MS analysis; format: ADME, Microsome; settings: read-out: Stability
[6] = molecular target: T1, AP2-associated protein kinase 1 (Homo sapiens, UniProt Q2M2I8); assay: Inhibition of bacterially expressed GST-Xa-tagged human AAK1 using 5-FAM-labelled Aha-KEEQSQITSQVTGQIGWR-NH2 peptide as substrate incubated for 3 hrs in presence of ATP by electrophoretic analysis
T1 sequence (Q2M2I8 whole entry): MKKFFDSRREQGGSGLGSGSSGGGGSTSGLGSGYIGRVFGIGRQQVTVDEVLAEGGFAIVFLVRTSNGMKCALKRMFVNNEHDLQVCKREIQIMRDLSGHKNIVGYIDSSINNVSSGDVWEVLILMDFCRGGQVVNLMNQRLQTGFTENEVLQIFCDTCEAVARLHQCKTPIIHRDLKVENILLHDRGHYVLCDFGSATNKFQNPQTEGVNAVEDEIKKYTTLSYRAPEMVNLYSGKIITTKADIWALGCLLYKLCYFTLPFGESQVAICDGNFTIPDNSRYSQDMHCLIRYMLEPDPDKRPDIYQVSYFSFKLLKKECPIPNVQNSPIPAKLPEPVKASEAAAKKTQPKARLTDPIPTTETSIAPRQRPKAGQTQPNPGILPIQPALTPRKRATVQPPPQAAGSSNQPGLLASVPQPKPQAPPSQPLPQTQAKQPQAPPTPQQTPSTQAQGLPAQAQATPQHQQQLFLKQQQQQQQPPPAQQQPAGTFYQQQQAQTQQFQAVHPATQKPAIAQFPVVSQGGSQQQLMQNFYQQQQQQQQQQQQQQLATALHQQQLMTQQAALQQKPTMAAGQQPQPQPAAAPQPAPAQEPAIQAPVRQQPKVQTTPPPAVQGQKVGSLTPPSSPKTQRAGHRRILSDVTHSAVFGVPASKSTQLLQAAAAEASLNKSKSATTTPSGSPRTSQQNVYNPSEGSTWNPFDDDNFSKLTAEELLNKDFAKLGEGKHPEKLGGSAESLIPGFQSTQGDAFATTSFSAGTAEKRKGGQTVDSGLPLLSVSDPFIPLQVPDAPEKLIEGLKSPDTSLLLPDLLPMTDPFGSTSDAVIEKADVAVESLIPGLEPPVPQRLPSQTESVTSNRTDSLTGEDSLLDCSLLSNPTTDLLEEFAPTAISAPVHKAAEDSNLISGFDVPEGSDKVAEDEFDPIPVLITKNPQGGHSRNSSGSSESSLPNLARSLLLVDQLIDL

[7] = molecular target: T1, AP2-associated protein kinase 1; assay: Inhibition of full length human AAK1 expressed in HEK293F cells assessed as suppression of AP2 phosphorylation measured after 3 hrs by Western blot analysis based cellular assay; format: cell-based

| Structure (SMILES) | remaining at 10 min, 0.5 µM [1] | Ki [2] | remaining at 10 min, 0.5 µM [3] | IC50 [4] | remaining at 10 min, 0.5 µM [5] | IC50 [6] | IC50 [7] |
| --- | --- | --- | --- | --- | --- | --- | --- |
| Cc1cc(-c2cc(C)c(OC[C@@](C)(N)CC(C)C)cn2)ccn1 | 72% | 4.7 nM | 79% |  | 72% | 19 nM |  |
| CC(C)C[C@H](N)COc1ccc(-c2ccnc(N)c2)cc1 |  | 13 nM |  |  |  | 21 nM |  |
| COC(=O)Nc1cc(-c2cc(Cl)c(OC[C@@](C)(N)CC(C)C)cn2)ccn1 | 87% | 0.11 nM | 96% | > 20000 nM | 99% | 1.1 nM |  |
| COC(=O)Nc1cc(-c2cc(OC)c(OC[C@@](C)(N)CC(C)C)cn2)ccn1 | 100% |  | 91% | > 20000 nM | 96% | 3.5 nM |  |
| COC(=O)Nc1cc(-c2ccc(OC[C@@](C)(N)CC(C)C)c(CO)c2)ccn1 | 95% | 0.63 nM | 91% | > 20000 nM | 100% |  | 3.9 nM |
| CC(=O)Nc1cc(-c2ccc(OC[C@@H](N)CC(C)C)cc2)ccn1 |  | 0.9 nM |  |  |  | 4.6 nM | 8.1 nM |
| CC(C)C[C@H](N)COc1ccc(-c2ccnc(NCc3ccccc3)c2)cc1 |  |  |  |  |  | 127 nM |  |
| COC(=O)Nc1cc(-c2cnc(OC[C@@](C)(N)CC(C)C)cc2C)ccn1 | 69% | 41 nM | 98% | > 20000 nM | 87% | 490 nM |  |

Continued, values first:

| remaining at 10 min, 0.5 µM [1] | Ki [2] | remaining at 10 min, 0.5 µM [3] | IC50 [4] | remaining at 10 min, 0.5 µM [5] | IC50 [6] | IC50 [7] | Structure (SMILES) |
| --- | --- | --- | --- | --- | --- | --- | --- |
| 63% | 0.07 nM | 79% | > 20000 nM | 87% | 0.4 nM |  | COC(=O)Nc1cc(-c2cc(C(F)F)c(OC[C@@](C)(N)CC(C)C)cn2)ccn1 |
| 90% | 27 nM | 90% | 1300 nM | 100% |  |  | CC(=O)Nc1cc(-c2cc(F)c(OC[C@@H](N)CC(C)C)c(F)c2)ccn1 |
| 80% |  | 92% | 2100 nM | 84% | 1.2 nM |  | COC(=O)Nc1cc(-c2ccc(OC[C@@H](N)CC(C)C)c(F)c2)ccn1 |
| 78% |  | 80% | 5300 nM | 79% | 0.4 nM | 0.4 nM | COC(=O)Nc1cc(-c2cc(C(F)(F)F)c(OC[C@@](C)(N)CC(C)C)cn2)ccn1 |
| 65% |  | 90% | > 20000 nM | 75% | 1.2 nM |  | Cc1cc(-c2cc(C(F)(F)F)c(OC[C@@](C)(N)CC(C)C)cn2)ccn1 |
| 71% | 0.2 nM | 82% | > 20000 nM | 94% | 1.1 nM |  | COC(=O)Nc1cc(-c2ccc(OC[C@@](C)(N)CC(C)C)c(F)c2)ccn1 |
| 75% | 2.5 nM | 94% | 800 nM | 97% |  | 6.8 nM | CC(=O)Nc1cc(-c2cc(F)c(OC[C@@H](N)CC(C)C)c(Cl)c2)ccn1 |
| 92% |  | 86% | > 20000 nM | 98% |  |  | CC(C)C[C@](C)(N)COc1cnc(-c2ccnc(Cl)c2)cc1Cl |
| 93% | 18 nM | 93% | > 20000 nM | 100% | 23 nM |  | COC(=O)Nc1cc(-c2ccc(OC[C@@](C)(N)CC(C)C)cn2)ccn1 (racemic) |
| 79% | 4.9 nM | 100% | > 20000 nM | 96% | 28 nM |  | COC(=O)Nc1cc(-c2ccc(OC[C@@](C)(N)CC(C)C)nc2)ccn1 |
